Results on 54 compounds are retold here after patent US8546443B2, “Benzylic oxindole pyrimidines” (Boehringer Ingelheim International GmbH, priority 2010, dated 2013).

This test deals with T1, cytoplasmic kinase domain of human IGF-1R (IGF-1R-GST) (Homo sapiens, UniProt P08069).
T1 construct: cytoplasmic kinase domain of human IGF-1R (amino acids 964-1370); GST (glutathione-S-transferase); made in house; host or cells: High Five insect cells (Invitrogen)
Put plainly: Insulin-like growth factor-1 receptor (IGF-1R) kinase assay (DELFIA). The test is classed as biochemical. To be noted: IGF-1R-GST kinase activity, read-out: IGF1R IC50. The method, then: Insulin-Like Growth Factor-1 Receptor (IGF-1R)-Kinase Assay
The kinase activity is measured by DELFIA® assay (dissociation-enhanced lanthanide fluorescence immunoassay, Perkin Elmer). […] Enzyme activity is measured in the presence of substances and a control substance. Poly-glutamate-tyrosine peptide (pEY, Sigma Aldrich) and biotinylated pEY (bio-pEY) are used as reaction substrates.
After 40 min at RT the reactions are stopped with 50 μL of stop solution (250 mM EDTA, 20 mM HEPES pH 7.4). 90 μL from each reaction are transferred onto streptavidin-coated 96-well plates. After 120 min incubation at RT the plates are washed three times with 200 μL phosphate-buffered saline (PBS) per well. The plates are incubated for 60 min with 100 μL of europium-coupled antibody against phospho-tyrosine (diluted 1/2000 in Perkin Elmer DELFIA assay buffer) per well. The plates are washed three times with 200 μL per well of DELFIA washing buffer. 100 μL DELFIA Enhancement Solution (Perkin Elmer) is added to each well, and the plates are incubated for 10 min. The fluorescence signal is measured with a Wallac Victor TRF Reader. IC50 values for the inhibition of the IGF-1R-kinase activity are calculated using the programmes Fifty (Version 2) and GraphPad (Version 3.0).

By IC50 is commonly meant the midpoint of a concentration-inhibition curve.

T1 sequence (P08069 964-1367 limits assumed): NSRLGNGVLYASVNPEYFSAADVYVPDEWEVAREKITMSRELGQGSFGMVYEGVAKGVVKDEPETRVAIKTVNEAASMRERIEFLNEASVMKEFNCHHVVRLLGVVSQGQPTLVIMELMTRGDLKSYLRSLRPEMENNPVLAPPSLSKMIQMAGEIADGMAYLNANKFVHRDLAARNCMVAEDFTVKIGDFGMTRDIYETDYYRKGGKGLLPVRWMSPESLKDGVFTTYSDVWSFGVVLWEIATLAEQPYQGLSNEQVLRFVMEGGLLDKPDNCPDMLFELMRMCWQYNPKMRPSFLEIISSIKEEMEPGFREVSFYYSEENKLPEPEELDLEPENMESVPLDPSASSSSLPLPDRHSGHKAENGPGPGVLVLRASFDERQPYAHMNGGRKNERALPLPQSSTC

Take `COc1cc(N2CCN(C3CCN(C(C)C)CC3)CC2)ccc1Nc1ncc(C(F)(F)F)c(NCc2cccc3c2CC(=O)N3)n1` [Example I-111]: the IC50 came out at 18 nM. `COc1cc(N2CCN(C3CCN(C(C)=O)CC3)CC2)ccc1Nc1ncc(C(F)(F)F)c(NCc2cccc3c2C(C)(C)C(=O)N3)n1` [Example I-158]: the IC50 stood at 2 nM. In the case of `COc1cc(N2CCC(N3CCCC3)CC2)ccc1Nc1ncc(C(F)(F)F)c(NCc2cccc3c2C(C)(C)C(=O)N3)n1` [Example I-180] it was 2 nM.

For `COc1cc(N2CCC(N3CCC(O)CC3)CC2)ccc1Nc1ncc(C(F)(F)F)c(NCc2cccc3c2CC(=O)N3)n1` [Example I-188], the IC50 worked out at 5 nM.

`COc1cc(N2CCN(CC3CC3)CC2)ccc1Nc1ncc(Cl)c(NCc2cccc3c2C(C)(C)C(=O)N3)n1` [Example I-101]: the IC50 turned out to be 2 nM. As for `CC(C)(C)OC(=O)NCC(=O)N1CCC(c2ccc(Nc3ncc(Cl)c(NCc4cccc5c4C(C)(C)C(=O)N5)n3)cc2)CC1` [Example I-45], the concentration for half-maximal inhibition (IC50) is 23 nM. Consider `CCC1(CC)C(=O)Nc2cccc(CNc3nc(Nc4ccc(C(=O)NC5CCN(C)CC5)cc4OC)ncc3C(F)(F)F)c21` [Example I-233], for which the IC50 turned out to be 58 nM. As for `CCOC(=O)N1CCC(N2CCN(c3ccc(Nc4ncc(C(F)(F)F)c(NCc5cccc6c5C(C)(C)C(=O)N6)n4)c(OC)c3)CC2)CC1` [Example I-163], the figure is 10 nM. Consider `COc1cc(N2CCC(N3CCN(C4CC4)CC3)CC2)ccc1Nc1ncc(C(F)(F)F)c(NCc2cccc3c2CC(=O)N3)n1` [Example I-190], for which the 50% inhibitory concentration (IC50) stood at 6 nM. As for `COc1cc(N2CCC(N3CCN(C(C)C)CC3)CC2)ccc1Nc1ncc(C(F)(F)F)c(NCc2cccc3c2CC(=O)N3)n1` [Example I-198], the IC50 turned out to be 11 nM.

Regarding `CC1(C)C(=O)Nc2cccc(CNc3nc(Nc4ccc(C5CCN(C(=O)[C@@H]6CCCN6)CC5)cc4)ncc3Cl)c21` [Example I-49], the concentration for half-maximal inhibition (IC50) was 5 nM.

For the compound `COc1cc(N2CCC(O)CC2)ccc1Nc1ncc(C(F)(F)F)c(NCc2cccc3c2CC(=O)N3)n1` [Example I-237], the IC50 amounted to 21 nM.

With `CNCC(=O)N1CCC(c2ccc(Nc3ncc(Cl)c(NCc4cccc5c4C(C)(C)C(=O)N5)n3)cc2)CC1` [Example I-51], the IC50 came out at 2 nM. Take `COc1cc(N2CCN(C(C)C)CC2)ccc1Nc1ncc(Cl)c(NCc2cccc3c2C(C)(C)C(=O)N3)n1` [Example I-98]: the IC50 was found to be 2 nM.

For `COc1cc(N2CCN(C3CCN(C)CC3)CC2)ccc1Nc1ncc(C(F)(F)F)c(NCc2cccc3c2C(C)(C)C(=O)N3C)n1` [Example I-130], the concentration for half-maximal inhibition (IC50) was determined as 2 nM. On to `COc1cc(N2CCN(C(=O)CN3CCN(C)CC3)CC2)ccc1Nc1ncc(Cl)c(NCc2cccc3c2C(C)(C)C(=O)N3)n1` [Example I-61], for which the concentration for half-maximal inhibition (IC50) was 3 nM. With `COc1cc(C(=O)NCCN2CCCC2)ccc1Nc1ncc(C(F)(F)F)c(NCc2cccc3c2CC(=O)N3)n1` [Example I-232], the IC50 turned out to be 47 nM. Turning to `CCN1CC2CC1CN2c1ccc(Nc2ncc(C(F)(F)F)c(NCc3cccc4c3C(C)(C)C(=O)N4)n2)c(OC)c1` (stereo not drawn) [Example I-153], the IC50 stood at 2 nM.

As to `COc1cc(N2CCN(C3CCOCC3)CC2)ccc1Nc1ncc(C(F)(F)F)c(NCc2cccc3c2C(C)(C)C(=O)N3C)n1` [Example I-126], the IC50 stood at 3 nM.

For `CCOC(=O)N1CCC(N2CCN(c3ccc(Nc4ncc(C(F)(F)F)c(NCc5cccc6c5CC(=O)N6)n4)c(OC)c3)CC2)CC1` [Example I-166], the IC50 came to 11 nM.

As for `COc1cc(N2CCN(C3COC3)CC2)ccc1Nc1ncc(C(F)(F)F)c(NCc2cccc3c2C(C)(C)C(=O)N3)n1` [Example I-156], the IC50 was determined as 4 nM. `CCN1CCC(NC(=O)c2ccc(Nc3ncc(C(F)(F)F)c(NCc4cccc5c4CC(=O)N5)n3)c(OC)c2)CC1` [Example I-229]: the half-maximal inhibitory concentration (IC50) was 12 nM. As for `CCOc1cc(N2CCN(CC)CC2)ccc1Nc1ncc(C(F)(F)F)c(NCc2cccc3c2C(C)(C)C(=O)N3)n1` [Example I-144], the figure is 0.81 nM; as for `COc1cc(N2CCNCC2)ccc1Nc1ncc(Cl)c(NCc2cccc3c2C(C)(C)C(=O)N3)n1` [Example I-11], 2 nM. In the case of `COc1cc(N2CCN(C(C)=O)CC2)ccc1Nc1ncc(C(F)(F)F)c(NCc2cccc3c2C(C)(C)C(=O)N3)n1` [Example I-77] it was 3 nM; in that of `COc1cc(C2CCN(C(=O)CN(C)C)CC2)ccc1Nc1ncc(Cl)c(NCc2cccc3c2C(C)(C)C(=O)N3)n1` [Example I-58], 1 nM. For the compound `CCOc1cc(N2CCN(C3COC3)CC2)ccc1Nc1ncc(C(F)(F)F)c(NCc2cccc3c2C(C)(C)C(=O)N3)n1` [Example I-146], the 50% inhibitory concentration (IC50) stood at 4 nM.

Take `COc1cc(N2CCC(N3CC[C@H](O)C3)CC2)ccc1Nc1ncc(C(F)(F)F)c(NCc2cccc3c2C(C)(C)C(=O)N3)n1` [Example I-172]: the IC50 came to 0.4 nM. For the compound `COc1cc(N2CCN(C(=O)CCCN(C)C)CC2)ccc1Nc1ncc(C(F)(F)F)c(NCc2cccc3c2CC(=O)N3)n1` [Example I-92], the IC50 was determined as 9 nM. Take `COc1cc(C(=O)N2CCOCC2)ccc1Nc1ncc(C(F)(F)F)c(NCc2cccc3c2C(C)(C)C(=O)N3)n1` [Example I-234]: the IC50 came to 8 nM. As for `COc1cc(C2CCN(C(C)C)CC2)ccc1Nc1ncc(C(F)(F)F)c(NCc2cccc3c2C(C)(C)C(=O)N3)n1` [Example I-159], the IC50 came to 0.41 nM.

As to `CCN1CCN(c2ccc(Nc3ncc(C(F)(F)F)c(NCc4cccc5c4C(C)(C)C(=O)N5C)n3)c(OC)c2)CC1` [Example I-129], the IC50 came out at 2 nM. Take `CCOc1cc(N2CCNCC2)ccc1Nc1ncc(C(F)(F)F)c(NCc2cccc3c2C(C)(C)C(=O)N3)n1` [Example I-33]: the IC50 came to 0.6 nM. In the case of `COCCN1CCC(N2CCN(c3ccc(Nc4ncc(C(F)(F)F)c(NCc5cccc6c5CC(=O)N6)n4)c(OC)c3)CC2)CC1` [Example I-122] it was 15 nM; in that of `CCOc1cc(N2CCN(C3COC3)CC2)ccc1Nc1ncc(C(F)(F)F)c(NCc2cccc3c2CC(=O)N3)n1` [Example I-141], 19 nM. Take `CNC(=O)CN1CCC(c2ccc(Nc3ncc(Cl)c(NCc4cccc5c4C(C)(C)C(=O)N5)n3)c(C)c2)CC1` [Example I-219]: the IC50 was determined as 2 nM. Take `CN1CCC(c2ccc(Nc3ncc(Cl)c(NCc4cccc5c4C4(CC4)C(=O)N5)n3)cc2)CC1` [Example I-161]: the half-inhibitory concentration (IC50) came out at 0.96 nM. As to `COCCN1CCN(c2ccc(Nc3ncc(C(F)(F)F)c(NCc4cccc5c4CC(=O)N5)n3)c(OC)c2)CC1` [Example I-224], the IC50 was found to be 18 nM.

In the case of `CCOc1cc(N2CCN(C(C)=O)CC2)ccc1Nc1ncc(C(F)(F)F)c(NCc2cccc3c2CC(=O)N3)n1` [Example I-78], the IC50 came to 30 nM. In the case of `Cc1cc(C2CCCNC2)ccc1Nc1ncc(Br)c(NCc2cccc3c2C(C)(C)C(=O)N3)n1` (racemic) [Example I-7], the IC50 turned out to be 0.69 nM. Take `COc1cc(N2CCC(N(C)CCCN(C)C)CC2)ccc1Nc1ncc(C(F)(F)F)c(NCc2cccc3c2CC(=O)N3)n1` [Example I-185]: the IC50 worked out at 4 nM.

As for `COc1cc(N2CCC(NCCCN(C)C)CC2)ccc1Nc1ncc(C(F)(F)F)c(NCc2cccc3c2CC(=O)N3)n1` [Example I-183], the half-maximal inhibitory concentration (IC50) amounted to 3 nM. Take `COc1cc(N2CCC(N3CCC3)CC2)ccc1Nc1ncc(C(F)(F)F)c(NCc2cccc3c2C(C)(C)C(=O)N3)n1` [Example I-176]: the IC50 was 0.98 nM. Consider `COc1cc(N2CCN(Cc3ccncc3)CC2)ccc1Nc1ncc(C(F)(F)F)c(NCc2cccc3c2CC(=O)N3)n1` [Example I-120], for which the IC50 is 49 nM. `COc1cc(N2CCC(N(C)CCO)CC2)ccc1Nc1ncc(C(F)(F)F)c(NCc2cccc3c2C(C)(C)C(=O)N3)n1` [Example I-169]: the IC50 was determined as 0.26 nM. Consider `COc1cc(N2CC3CC2CN3C2CCC2)ccc1Nc1ncc(C(F)(F)F)c(NCc2cccc3c2C(C)(C)C(=O)N3)n1` (stereo not drawn) [Example I-148], for which the IC50 was found to be 3 nM. In the case of `COc1cc(N2CCC(N(C)CCN(C)C)CC2)ccc1Nc1ncc(C(F)(F)F)c(NCc2cccc3c2CC(=O)N3)n1` [Example I-178] it was 2 nM; in that of `COc1cc(C2CCN(C)CC2)ccc1Nc1ncc(Cl)c(NCc2cccc3c2C(C)(C)C(=O)N3)n1` [Example I-100], 2 nM. Consider `CN(C)CC(=O)N1CCC(c2ccc(Nc3ncc(Br)c(NCc4cccc5c4C(C)(C)C(=O)N5)n3)cc2)CC1` [Example I-42], for which the IC50 came out at 0.79 nM. Turning to `COc1cc(N2CCN(C3CCN(C)CC3)[C@H](C)C2)ccc1Nc1ncc(C(F)(F)F)c(NCc2cccc3c2C(C)(C)C(=O)N3)n1` [Example I-132], the IC50 was determined as 0.6 nM.

On to `COc1cc(N2CCN(CC3CC3)CC2)ccc1Nc1ncc(C(F)(F)F)c(NCc2cccc3c2C(C)(C)C(=O)N3)n1` [Example I-162], for which the IC50 was 2 nM. As for `CC(C)N1CCC(c2ccc(Nc3ncc(C(F)(F)F)c(NCc4cccc5c4C(C)(C)C(=O)N5)n3)cc2)CC1` [Example I-134], the figure is 1 nM. For the compound `COc1cc(N2CCC(C(=O)NC3CCN(C)CC3)CC2)ccc1Nc1ncc(C(F)(F)F)c(NCc2cccc3c2C(C)(C)C(=O)N3)n1` [Example I-226], the IC50 is 2 nM. On to `COc1cc(N2CCN(CCF)CC2)ccc1Nc1ncc(C(F)(F)F)c(NCc2cccc3c2CC(=O)N3)n1` [Example I-222], for which the IC50 was determined as 32 nM.
